This note sets out measurements from US10124065B2, “Lipids and lipid compositions for the delivery of active agents” (Novartis AG, priority 2013, dated 2018).

Like-named read-outs stand apart in the source and are kept apart here.

One data set has as its system human leptin. Kind of data set: Mouse intravenous tail vein injection of modified synthetic leptin mRNA, human leptin ELISA. It is filed as in vivo, C57BL/6 mouse. Conditions: human leptin in mouse plasma, 10 μg leptin mRNA, 24 h. The method, then:
Before the tail vein injection, mouse body weights were recorded and diet weighted, with mice grouped according to their body weights. Mice were prepared by warming them under a heating lamp for ˜2 minutes, with the mice about 12 inches from heat lamp.
For the tail vein injection procedure, the mice were placed in a restrainer and their tails cleaned with 70% alcohol. A 27 gauge needle (Becton Dickinson, Catalogue #305109) connected with a 1 ml syringe (Becton Dickinson, Catalogue #309659) was inserted into the tail vein, with bevel facing up, and the syringe plunger was pulled backwards to ensure blood is drawn into the syringe. The desired volume of modified synthetic leptin mRNA was injected by hand with moderate pressure and speed. The needle was then withdrawn and bleeding stopped by adding pressure to injection site with gauze.
Single housed, 8-9 week old, male C57BL/6 mice were used for the in vivo study. FPLC purified modified synthetic leptin mRNA (SEQ ID NO: 5) in which the uridines were substituted with pseudouridine was packaged in a cationic lipid (N:P molar ratio=8:1) and then were diluted in injectable saline at a dose of 10 μg per average group body weight.
On day 0, animals were weighed and sorted according to average body weight. Mice were dosed, and food intake (FI) was recorded, on each of days 1-7 and days 9, 11, and 16.
Human leptin in mouse plasma was measured by ELISA. Antibodies purchased from the R&D Systems duoset (Cat# DY398E, part#840279 for capture antibody and part#840280 for detection antibody) were reconstituted using PBS and titered, again using PBS. The capture antibody was coated at 4 ug/ml in 30 ul/well on a white Nunc® Maxisorp 384 well plate (Cat#460372). After an overnight incubation at room temperature the capture antibody was aspirated and the plate blocked for 2 hours at room temperature with 90 ul/well of KPL milk blocker (Cat#50-82-00). Once the incubation was completed the plate was aspirated and recombinant standards and samples were added to the plate at 30 ul/well for 2 hours at 37° C. while shaking at 600 rpm. Sample/standard dilutions were made using casein sample diluent. Washing/aspiration 3 times with 100 ul/well followed, using Teknova plate wash solution (Cat# P1192). Next, detection antibody was diluted using casein detection antibody diluent to 12.5 ng/ml and added at 30 ul/well for 2 hours room temperature. After this incubation, the plate was washed again and a solution of poly-streptavidin-HRP (Cat#21140) at a 1:1250 dilution in HRP dilution buffer was added to each well (30 ul/well) and incubated for 30 minutes room temperature. A final wash/aspiration removed the HRP solution and a chemiluminescent substrate was added at 30 ul/well (Cat#1859678 & 1859679). The plate was quickly read using a SpectramaxM5 plate reader with a 50 ms integration time. The dynamic range of the ELISA is from 100-2,000 pg/ml (6.25-125 pM) of human leptin.

Data set [1] relates to plasma Factor VII enzyme activity. Kind of data set: Mouse Factor VII dosing / Factor VII Activity Assay. Conditions: percent knock down of plasma Factor VII activity, CD-1 mice, 48 h; for KD FVII 0.03 mg/kg: single IV dose 0.03 mg/kg; for KD FVII 0.3 mg/kg: single IV dose 0.3 mg/kg. The format is in vivo. The gist of the method: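 Female CD-1 mice (~25 g) received a single IV tail-vein dose of lipid-nanoparticle-formulated Factor VII siRNA (0.3 or 0.03 mg/kg). Plasma taken ~48 h later; FVII activity measured chromogenically against vehicle-control plasma standard curve, reported as % knockdown.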

Data set [2] can be described thus: Particle size of lipid nanoparticle (dynamic light scattering, Malvern Zetasizer). It is filed as physicochemical. The source says: The lipid nanoparticles have a size of about 1 to about 2,500 nm, about 1 to about 1,500 nm, about 1 to about 1,000 nm, in a sub-embodiment about 50 to about 600 nm, in a sub-embodiment about 50 to about 400 nm, in a sub-embodiment about 50 to about 250 nm, and in a sub-embodiment about 50 to about 150 nm. Unless indicated otherwise, all sizes referred to herein are the average sizes (diameters) of the fully formed nanoparticle, as measured by dynamic light scattering on a Malvern Zetasizer. The nanoparticle sample is diluted in phosphate buffered saline (PBS) so that the count rate is approximately 200-400 kcts. The data is presented as a weighted average of the intensity measure. Unless indicated otherwise, all particle size measurements referred to in Tables 4 and 5 are the Z-average particle size of the fully formed nanoparticle, as measured by dynamic light scattering on a Malvern Zetasizer. The nanoparticle sample was diluted in phosphate buffered saline (PBS) so that the count rate is approximately 200-400 kcts.

The nature of data set [3]: pKa measurement of cationic lipid (TNS fluorescence). It is filed as physicochemical. Conditions: pKa of the cationic lipid of formula (I), Table 4. How it is done: Unless indicated otherwise, all pKa's referred to herein were measured at standard temperature and pressure. Also, unless otherwise indicated, all references to pKa are references to pKa measured using the following technique. 2 mM solution of lipid in ethanol was prepared by weighing the lipid and then dissolving it in ethanol. 0.3 mM solution of fluorescent probe TNS in ethanol:methanol 9:1 was prepared by first making 3 mM solution of TNS in methanol and then diluting to 0.3 mM with ethanol. An aqueous buffer containing 200 mM sodium phosphate dibasic and 100 mM citric acid was prepared. […] Using the Hamilton Microlab Star high throughput liquid handler and Hamilton run control software Software, 7.5 uL of probe/lipid mix were added to 242.5 uL of buffer in a 1 mL 96 well plate (model NUNC 260252, […] Nunc International). This was done with all twelve buffers. After mixing in 1 mL 96 well plate, 100 uL of each probe/lipid/buffer mixture was transferred to a 250 uL black with clear bottom 96 well plate (model COSTAR 3904, Corning). The fluorescence measurements are carried out on the SpectraMax M5 spectrophotometer using software SoftMax pro 5.2 and following parameters: After the measurement, the background fluorescence value of an empty well on the 96 well plate was subtracted from each probe/lipid/buffer mixture. The fluorescence intensity values were then normalized to the value at lowest pH. The normalized fluorescence intensity vs. pH chart was then plotted in the Microsoft Excel software. The twelve points were connected with a smooth line. The point on the line at which the normalized fluorescence intensity was equal to 0.5 was found. […] The pKa determined using this method is precise to about 0.1 pKa units.

The nature of data set [4]: Polydispersity index (PDI) of lipid nanoparticle (dynamic light scattering). It is filed as physicochemical. How it is done: Unless indicated otherwise, all PDIs referred to herein are the PDI of the fully formed nanoparticle, as measured by dynamic light scattering on a Malvern Zetasizer. The nanoparticle sample was diluted in phosphate buffered saline (PBS) so that the count rate was approximately 200-400 kcts. The data is presented in Tables 4 and 5 as a weighted average of the intensity measure.

The test system of data set [5] is respiratory syncytial virus F protein. Description: Immunization studies, anti-RSV-F titers. The format is in vivo. As to conditions: anti-RSV-F titer, BALB/c, course A = days 0 & 21, liposomes with 0.1 μg vA317 replicon (naked: 1 μg); for 2wp1 pool 1 / 2wp1 pool 2: 2 weeks after first dose; for 2wp2 pool 1 / 2wp2 pool 2: 2 weeks after second dose. The method, then:
BALB/c were immunized with liposomes comprising DSPC, cholesterol, and various lipids of the invention (or, for comparison, the cationic lipid 1,2-dilinoleyloxy-N,N-dimethyl-3-aminopropane or ‘DLinDMA’). The liposomes encapsulated 0.1 μg of “vA317” self-replicating RNA replicon which encodes respiratory syncytial virus F protein (see WO2012/031043). […] Doses were given either on days 0 & 21 or days 0 & 42. Immune responses were assessed 2 weeks after each dose (2wp1, 2wp2), and in some cases also at 4 weeks after the second dose (4wp2).

A further data set relates to PLK-1 mRNA. Description: LS411N Xenograft Assay. As to conditions: percent knock down of PLK-1 mRNA vs control in LS411N tumors; IV 3 mg/kg daily for three days; LNP Chol/DSPC/S010 45/44/9/2. The format is in vivo, Nu/Nu mice. The method, then:
Female Nu/Nu mice (6-8 weeks old) were implanted subcutaneously with 5×10^6 LS411N cells. Tumor growth was monitored by caliper measurement before treatment initiation. Mice bearing 150-250 mm^3 subcutaneous tumors were randomized and enrolled in the study. The stock siRNA formulations were diluted to […] with PBS for dosing. Animals enrolled in different groups received a single daily bolus IV injection of 3 mg/kg siRNA for three days. Tumors were harvested 24 hours post last injection to assess target gene regulation by qRT-PCR.
Lipid nanoparticles comprising lipid compounds of formula (I) and the PLK1-424 siRNA duplex sequence listed above were tested in the LS411N Xenograft Assay. The results of this assay are given in Table 5 below as a percent knock down of PLK-1 mRNA as compared to the control when administered as a single daily dose for three days at a dose of 3 mg/kg.

Setting [6] is: FVII siRNA LNP, Chol/DSPC/PEG-DMG, molar ratio 45/44/9/2, Z-average.
The mark [7] stands for this setting: FVII siRNA LNP, Chol/DSPC/S010, molar ratio 45/44/9/2, Z-average.
Where [8] appears, read: PLK1-424 siRNA LNP, Chol/DSPC/S011 45/44/9/2.
Where [9] appears, read: LNP Chol/DSPC/PEG-DMG 45/44/9/2.
The mark [10] stands for this setting: FVII siRNA LNP, Chol/DSPC/PEG-DMG, molar ratio 45/44/9/2.
Setting [11] is: FVII siRNA LNP, Chol/DSPC/S010, molar ratio 45/44/9/2.

In the case of `CCCCCCCC(=O)OCCCCCC(=O)OCc1cc(COC(=O)CCCCCOC(=O)CCCCCCC)cc(CN(C)C)c1` [Example 85, (((5-((dimethylamino)methyl)-1,3-phenylene)bis(methylene))bis(oxy))bis(6-oxohexane-6,1-diyl)dioctanoate], in the data set on human leptin, the “Leptin expression IV-C57BI/6, 24 h” value was determined as 1.78 ng/mL.
For `CCCCCCCC(=O)OC[C@@H](CCOc1cc(CN(C)C)cc(OCC[C@@H](COC(=O)CCCCCCC)OC(=O)CCCCCCC)c1)OC(=O)CCCCCCC` [Example 92, (R)-4-(3-((S)-3,4-bis(octanoyloxy)butoxy)-5-((dimethylamino)methyl)phenoxy)butane-1,2-diyldioctanoate], the “KD FVII 0.03 mg/kg” value in data set [1] (LNP Chol/DSPC/S010 45/44/9/2) is on record as 89.4%. Also, the “Leptin expression IV-C57BI/6, 24 h” value with human leptin came out at 1.34 ng/mL.
For the compound `CCCCC/C=C\C/C=C\CCCCCCCCOc1cc(CN(C)C)cc(OCCCCCCCC/C=C\C/C=C\CCCCC)c1` [Example 2, 1-(3,5-bis((9Z,12Z)-octadeca-9,12-dien-1-yloxy)phenyl)-N,N-dimethylmethanamine], the “Size (nm)” value is 97.4 nm in data set [2] (setting [6]), 92.85 nm in data set [2] (setting [7]) and 88.19 nm in data set [2] (setting [8]). In addition, in data set [3] (listed as Ex. 2), the pKa (as a rule, the pH at which an ionisable group is half protonated) is 5.46. Besides, the “KD FVII 0.03 mg/kg” value in data set [1] (LNP Chol/DSPC/S010 45/44/9/2) was 55%. The “KD FVII 0.3 mg/kg” value in data set [1] (setting [9]) amounted to 95.5%. Also, the PDI was 0.04 in data set [4] (setting [10]), 0.067 in data set [4] (setting [11]) and 0.1 in data set [4] (setting [8]). The “2wp1 pool 1” value in data set [5] amounted to 217. In data set [5], the “2wp1 pool 2” value came to 259. Besides, the “2wp2 pool 1” value in data set [5] is recorded as 12785. Moreover, in data set [5], the “2wp2 pool 2” value worked out at 8232.
As for `CCCCCCCCOC(CCCOc1cc(CN(C)C)cc(OCCCC(OCCCCCCCC)OCCCCCCCC)c1)OCCCCCCCC` [Ex. 126, 1-(3,5-bis(4,4-bis(octyloxy)butoxy)phenyl)-N,N-dimethylmethanamine], the “Size (nm)” value in data set [2] (setting [6]) is 95.2 nm. For the same compound, the pKa in data set [3] (probe TNS, read-out: pKa) was found to be 5.54. Also, the “KD FVII 0.03 mg/kg” value in data set [1] (setting [9]) is given as 31.7%. Also, the PDI in data set [4] (setting [10]) stood at 0.075.
Consider `CCCCC/C=C\C/C=C\CCCCCCCC(=O)Oc1cc(COC(=O)CCN(C)C)cc(OC(=O)CCCCCCC/C=C\C/C=C\CCCCC)c1` [Example 26, (9Z,9′Z,12Z,12′Z)-5-(((3-(dimethylamino)propanoyl)oxy)methyl)-1,3-phenylene bis(octadeca-9,12-dienoate)], for which the “Size (nm)” value in data set [2] (setting [6]) came out at 104.3 nm. In data set [2] (setting [7]), the “Size (nm)” value stood at 121.6 nm. For the same compound, the pKa in data set [3] (probe TNS, read-out: pKa) is 6.45. In data set [1] (setting [9]), the “KD FVII 0.3 mg/kg” value is on record as 58.1%. For the same compound, the PDI in data set [4] (setting [10]) turned out to be 0.04. For the same compound, the PDI in data set [4] (setting [11]) was found to be 0.046. Further, in data set [5], the “2wp1 pool 1” value was found to be 4, the “2wp1 pool 2” value was 4, the “2wp2 pool 1” value was 10 and the “2wp2 pool 2” value was determined as 10. Further, in data set [5] (4 weeks after second dose), the “4wp2 pool 1” value turned out to be 10 and the “4wp2 pool 2” value came out at 10.
Regarding `CCCCCCCC(=O)OCCCCCCCCOc1cc(CN(C)C)cc(OCCCCCCCCOC(=O)CCCCCCC)c1` [Example 42, ((5-((dimethylamino)methyl)-1,3-phenylene)bis(oxy))bis(octane-8,1-diyl)dioctanoate], in the data set with PLK-1 mRNA, the “LS411 KD 3 × 3 mg/Kg” value is 50%. The “KD FVII 0.03 mg/kg” value in data set [1] (LNP Chol/DSPC/S010 45/44/9/2) worked out at 92.8%.
